Assays:
[1] = tested on: Wnt pathway (Sp5-Luc reporter, SW480 cells); assay: Sp5-Luc reporter gene screening assay for Wnt activity in SW480 colon carcinoma cells; format: cell-based; details: Homo sapiens
Description: The screening assay for Wnt activity is described as follows. Reporter cell lines can be generated by stably transducing cancer cell lines (e.g., colon cancer) or primary cells (e.g., IEC-6 intestinal cells) with a lentiviral construct that includes a Wnt-responsive promoter driving expression of the firefly luciferase gene.
SW480 colon carcinoma cells were transduced with a lentiviral vector expressing luciferase with a human Sp5 promoter consisting of a sequence of eight TCF/LEF binding sites. SW480 cells stably expressing the Sp5-Luc reporter gene and a hygromycin resistance gene were selected by treatment with 150 μg/ml of hygromycin for 7 days. These stably transduced SW480 cells were expanded in cell culture and used for all further screening activities. For Sp5-Luc reporter gene assays, the cells were plated at 10,000 cells/well in 96-well plates with growth medium containing 10% fetal calf serum and incubated overnight at 37° C. and 5% CO2. Each compound was dissolved in DMSO as a 10 mM stock in standard j-vials and used to prepare compound source plates in dose-response format with 3-fold serial dilutions and a 10 mM top concentration. Compound transfer from serially diluted source plates to assay plates containing the cells was accomplished using a pintool (Multimek 96, Beckman equipped with V&P Scientific FP1S50H pins) based liquid handling protocol. This protocol used a slotted pin to transfer 50 nl of compound from a source plate well to an assay plate well containing 50 μl of cells in growth medium. […] Control wells received 50 nl of DMSO treatment for normalization and calculating IC50 values. The treated cells were incubated at 37° C. and 5% CO2 for an additional forty-two hours. Following incubation, the growth medium was removed and 50 μl of BrightGlo luminescence reagent (Promega) was added to each well of the 96-well assay plates. The plates were placed on an orbital shaker for 5 min and then luminescence was quantified on the Victor3 (Perkin Elmer) plate reader. Readings were normalized to DMSO only treated cells, and normalized activities were utilized for IC50 calculations using the dose-response log (inhibitor) vs. response-variable slope (four parameters) nonlinear regression feature available in GraphPad Prism 5.0 or 6.0.

LL29 cells = assay: Inhibition of the fibrotic process (αSMA staining) in TGF-β1 treated primary human fibroblasts from IPF patients; format: cell-based; details: Fibroblast, 96 h, TGF-β1 20 ng/mL, 4 days, dose-response 10 μM to 1.87 nM, read-out: Inhibition of fibrosis EC50
Description: The above synthesized compounds were screened using primary human fibroblasts (derived from IPF patients) treated with TGF-β1 to determine their ability to inhibit the fibrotic process.
Primary human fibroblasts derived from IPF patients (LL29 cells) [^1Xiaoqiu Liu, et. al., “Fibrotic Lung Fibroblasts Show Blunted Inhibition by cAMP Due to Deficient cAMP Response Element-Binding Protein Phosphorylation”, Journal of Pharmacology and Experimental Therapeutics (2005), 315(2), 678-687; ^2Watts, K. L., et. al., “RhoA signaling modulates cyclin D1 expression in human lung fibroblasts; implications for idiopathic pulmonary fibrosis”, Respiratory Research (2006), 7(1), 88] were obtained from American Type Culture Collection (ATCC) and expanded in F12 medium supplemented with 15% Fetal Bovine Serum and Penicillin/Streptomycin.
Each compound was dissolved in DMSO as a 10 mM stock and used to prepare compound source plates. Serial dilution (1:2, 11-point dose-response curves from 10 μM to 1.87 nM) and compound transfer was performed using the ECHO 550 (Labcyte, Sunnyvale, Calif.) into 384-well clear bottom assay plates (Greiner Bio-One) with appropriate DMSO backfill for a final DMSO concentration of 0.1%. LL29 cells were plated at 1,500 cells/well in 80 μl/well F12 medium supplemented with 1% Fetal Bovine Serum. One hour after addition of the cells, TGF-β1 (Peprotech; 20 ng/mL) was added to the plates to induce fibrosis (ref. 1 and 2 above). Wells treated with TGF-β1 and containing DMSO were used as controls. Cells were incubated at 37° C. and 5% CO2 for 4 days. Following incubation for 4 days, SYTOX green nucleic acid stain (Life Technologies [Thermo Fisher Scientific]) was added to the wells at a final concentration of 1 uM and incubated at room temperature for 30 min. Cells were then fixed using 4% formaldehyde (Electron Microscopy Sciences), washed 3 times with PBS followed by blocking and permeabilization using 3% Bovine Serum Albumin (BSA; Sigma) and 0.3% Triton X-100 (Sigma) in PBS. Cells were then stained with antibody specific to α-smooth muscle actin (αSMA; Abcam) (ref. 1 and 2 above) in 3% Bovine Serum Albumin (BSA; Sigma) and 0.3% Triton X-100 (Sigma) in PBS, and incubated overnight at 4° C. Cells were then washed 3 times with PBS, followed by incubation with Alexa Flor-647 conjugated secondary antibody (Life Technologies [Thermo Fisher Scientific]) and DAPI at room temperature for 1 hour. Cells were then washed 3 times with PBS and plates were sealed for imaging. αSMA staining was imaged by excitation at 630 nm and emission at 665 nm and quantified using the Compartmental Analysis program on the CellInsight CX5 (Thermo Scientific). Dead or apoptotic cells were excluded from analysis based on positive SYTOX green staining. % of total cells positive for αSMA were counted in each well and normalized to the average of 11 wells treated with TGF-31 on the same plate using Dotmatics' Studies Software. The normalized averages (fold change over untreated) of 3 replicate wells for each compound concentration were used to create dose-responses curves and EC50 values were calculated using non-linear regression curve fit in the Dotmatics' Studies Software. The EC50 values are reported.

Row | Structure (SMILES) | IC50 [1] [nM] | EC50 (LL29 cells) [nM]
1 | c1ccc(-c2nccc3[nH]c(-c4n[nH]c5cnc(-c6cncc(CNCC7CCCC7)c6)cc45)nc23)nc1 [Compound 154, 1-Cyclopentyl-N-((5-(3-(4-(pyridin-2-yl)-1H-imidazo[4,5-c]pyridin-2-yl)-1H-pyrazolo[3,4-c]pyridin-5-yl)pyridin-3-yl)methyl)methanamine] | 219 | 140
2 | CCC(=O)Nc1cncc(-c2cc3c(-c4nc5c(N6CCCCC6)nccc5[nH]4)n[nH]c3cn2)c1 [Compound 157, N-(5-(3-(4-(Piperidin-1-yl)-1H-imidazo[4,5-c]pyridin-2-yl)-1H-pyrazolo[3,4-c]pyridin-5-yl)pyridin-3-yl)propionamide] | 144 | 347
3 | CN(C)c1cncc(-c2cc3c(-c4nc5c(N6CCCCC6)nccc5[nH]4)n[nH]c3cn2)c1 [Compound 163, N,N-Dimethyl-5-(3-(4-(piperidin-1-yl)-1H-imidazo[4,5-c]pyridin-2-yl)-1H-pyrazolo[3,4-c]pyridin-5-yl)pyridin-3-amine] | 312 | ≤ 9
4 | CN(C)Cc1cncc(-c2cc3c(-c4nc5c(N6CCCCC6)nccc5[nH]4)n[nH]c3cn2)c1 [Compound 169, N,N-Dimethyl-1-(5-(3-(4-(piperidin-1-yl)-1H-imidazo[4,5-c]pyridin-2-yl)-1H-pyrazolo[3,4-c]pyridin-5-yl)pyridin-3-yl)methanamine] | > 10000 | 3110
5 | O=C(Nc1cncc(-c2cc3c(-c4nc5c(N6CCCCC6)nccc5[nH]4)n[nH]c3cn2)c1)C1CC1 [Compound 175, N-(5-(3-(4-(Piperidin-1-yl)-1H-imidazo[4,5-c]pyridin-2-yl)-1H-pyrazolo[3,4-c]pyridin-5-yl)pyridin-3-yl)cyclopropanecarboxamide] | 636 | ≤ 9
6 | CC(C)C(=O)Nc1cncc(-c2cc3c(-c4nc5c(N6CCN(C)CC6)nccc5[nH]4)n[nH]c3cn2)c1 [Compound 217] | 1080 | ≥ 9990
7 | CN1CCN(c2nccc3[nH]c(-c4n[nH]c5cnc(-c6cncc(CN7CCCCC7)c6)cc45)nc23)CC1 [Compound 223, 3-(4-(4-Methylpiperazin-1-yl)-1H-imidazo[4,5-c]pyridin-2-yl)-5-(5-(piperidin-1-ylmethyl)pyridin-3-yl)-1H-pyrazolo[3,4-c]pyridine] | > 10000 | ≥ 9990
8 | CN1CCN(c2nccc3[nH]c(-c4n[nH]c5cnc(-c6cncc(NC(=O)C7CCCC7)c6)cc45)nc23)CC1 [Compound 229, N-(5-(3-(4-(4-Methylpiperazin-1-yl)-1H-imidazo[4,5-c]pyridin-2-yl)-1H-pyrazolo[3,4-c]pyridin-5-yl)pyridin-3-yl)cyclopentanecarboxamide] | > 10000 | ≥ 9990
9 | CN1CCN(c2nccc3[nH]c(-c4n[nH]c5cnc(-c6cncnc6)cc45)nc23)CC1 [Compound 234, 3-(4-(4-Methylpiperazin-1-yl)-1H-imidazo[4,5-c]pyridin-2-yl)-5-(pyrimidin-5-yl)-1H-pyrazolo[3,4-c]pyridine] | 745 | 1380
10 | c1cncc(-c2cc3c(-c4nc5cnccc5[nH]4)n[nH]c3cn2)c1 [Compound 238, 3-(1H-Imidazo[4,5-c]pyridin-2-yl)-5-(pyridin-3-yl)-1H-pyrazolo[3,4-c]pyridine] | 66.5 | ≥ 9990
11 | O=C(Cc1ccccc1)Nc1cncc(-c2cc3c(-c4nc5cnccc5[nH]4)n[nH]c3cn2)c1 [Compound 244, N-(5-(3-(1H-Imidazo[4,5-c]pyridin-2-yl)-1H-pyrazolo[3,4-c]pyridin-5-yl)pyridin-3-yl)-2-phenylacetamide] | 1300 | ≥ 9990
12 | O=C(Nc1cncc(-c2cc3c(-c4nc5cnccc5[nH]4)n[nH]c3cn2)c1)C1CCCCC1 [Compound 256, N-(5-(3-(1H-Imidazo[4,5-c]pyridin-2-yl)-1H-pyrazolo[3,4-c]pyridin-5-yl)pyridin-3-yl)cyclohexanecarboxamide] | 532 | ≥ 9990
13 | CC(C)CC(=O)Nc1cncc(-c2cc3c(-c4nc5c(-c6ccsc6)nccc5[nH]4)n[nH]c3cn2)c1 [Compound 262, 3-Methyl-N-(5-(3-(4-(thiophen-3-yl)-1H-imidazo[4,5-c]pyridin-2-yl)-1H-pyrazolo[3,4-c]pyridin-5-yl)pyridin-3-yl)butanamide] | 139 | ≥ 9990
14 | Cc1ccncc1-c1cc2c(-c3nc4c(-c5ccsc5)nccc4[nH]3)n[nH]c2cn1 [Compound 265, 5-(4-Methylpyridin-3-yl)-3-(4-(thiophen-3-yl)-1H-imidazo[4,5-c]pyridin-2-yl)-1H-pyrazolo[3,4-c]pyridine] | 59.9 | 157
15 | CC(C)(C)C(=O)Nc1cncc(-c2cc3c(-c4nc5c(-c6ccsc6)nccc5[nH]4)n[nH]c3cn2)c1 [Compound 268, N-(5-(3-(4-(Thiophen-3-yl)-1H-imidazo[4,5-c]pyridin-2-yl)-1H-pyrazolo[3,4-c]pyridin-5-yl)pyridin-3-yl)pivalamide] | 41.3 | ≥ 9990
16 | O=C(Nc1cncc(-c2cc3c(-c4nc5c(-c6ccsc6)nccc5[nH]4)n[nH]c3cn2)c1)c1ccccc1 [Compound 271, N-(5-(3-(4-(Thiophen-3-yl)-1H-imidazo[4,5-c]pyridin-2-yl)-1H-pyrazolo[3,4-c]pyridin-5-yl)pyridin-3-yl)benzamide] | 189 | ≤ 9
17 | CCCC(=O)Nc1cncc(-c2cc3c(-c4nc5c(-c6ccsc6)nccc5[nH]4)n[nH]c3cn2)c1 [Compound 277, N-(5-(3-(4-(Thiophen-3-yl)-1H-imidazo[4,5-c]pyridin-2-yl)-1H-pyrazolo[3,4-c]pyridin-5-yl)pyridin-3-yl)butyramide] | 71.5 | ≤ 9
18 | O=C(Nc1cncc(-c2cc3c(-c4nc5c(-c6ccsc6)nccc5[nH]4)n[nH]c3cn2)c1)C1CCC1 [Compound 280, N-(5-(3-(4-(Thiophen-3-yl)-1H-imidazo[4,5-c]pyridin-2-yl)-1H-pyrazolo[3,4-c]pyridin-5-yl)pyridin-3-yl)cyclobutanecarboxamide] | 42.8 | ≥ 9990
19 | c1ccc(CNCc2cncc(-c3cc4c(-c5nc6c(-c7ccsc7)nccc6[nH]5)n[nH]c4cn3)c2)cc1 [Compound 283, N-Benzyl-1-(5-(3-(4-(thiophen-3-yl)-1H-imidazo[4,5-c]pyridin-2-yl)-1H-pyrazolo[3,4-c]pyridin-5-yl)pyridin-3-yl)methanamine] | 116 | ≤ 9

From patent US9844536B2, “3-(1H-imidazo[4,5-C]pyridin-2-yl)-1H-pyrazolo[3,4-C]pyridine and therapeutic uses thereof” (Samumed, LLC, priority 2014, dated 2017)
